Test results as given in publication PMC5856786, “A DHODH inhibitor increases p53 synthesis and enhances tumor cell killing by p53 degradation blockage” (Nature Communications, 2018).

Columns and labels:
[1] = test system: p53-null H1299 cells; test: p53 reporter (CPRG assay) in p53-null H1299 cells transfected with RGCΔFosLacZ; assay type: cell-based; conditions: H1299, 16 h exposure
Description: Supplementary Figure 1. HZ compounds increase the levels of p53-induced mRNAs. a) p53-null H1299 cells were transfected with the RGCΔ FosLacZ reporter construct and levels of p53-dependent transcription were determined by CPRG assay following a 16 h exposure to HZ00. A vector expressing wild-type p53 was used as a positive control. The average of three […]
for 1 hour prior to treatment with 2 µM nutlin-3 for an additional 18 hours. Levels of p53-induced mRNAs and p53 mRNA were determined by q-RT-PCR. tbp was used as a control.
Values correspond to the average of three technical repeats with standard deviation used for error. RNA extraction and q-RT-PCR were performed as previously described - see supplementary information7. c) HCT116 p53 wild-type or p53 deficient cells were treated […]
supplementary information for cell line description8. d) ARN8 cells treated for 6 hours with HZ00 at indicated doses. Levels of p53 mRNA were determined by q-RT-PCR. […]

[2] = molecular target: T1, human mdm2 (hdm2) (Homo sapiens, UniProt Q00987); test: hdm2 binding (CETSA in ARN8 extracts; ELISA with IP3 peptide); conditions: CETSA at 100 μM
T1 construct: ARN8 soluble cell extracts were prepared for the cellular thermal shift assay (CETSA); endogenous in cells; host or cells: ARN8 human melanoma cells (soluble extract)
Description: (§1) Levels of gapdh were used to monitor protein loading. e ARN8 or HNDF cells were treated with the indicated compound concentrations for 72 h and subjected to MTT assays. […] Incorporation of ^35S in the p53 immunoprecipitate was determined by autoradiography. The experiment is shown in duplicate
corresponds to residues 17−26 of wild-type p53) was determined by ELISA (See
supplementary information9). The percentage hdm2/hdmx bound to IP3 relative to the vehicle
upon which cycloheximide (CHX) (10 µg mL-1) was added for the indicated periods of time. […]

[3] = test system: p53 in ARN8 cells; test: p53 synthesis assay (35S-Met-Cys pulse labeling, p53 immunoprecipitation); assay type: cell-based, human; conditions: 20 μM, within 6 h of treatment
Description: ARN8 cells were seeded at 2.5 × 10^6 cells per 10 cm dish. […] After 5.5 h, medium was substituted for Met- and Cys-deprived DMEM, supplemented with 5 μM nutlin-3, 0.5% FBS and 4 mM L-glutamine for 20 min in the presence of the corresponding compounds. ^35S-Met-Cys (50 μCi mL^−1) was added for 30 min. […] Samples were centrifuged at 16,000×g for 15 min at 4 °C. Volume of 30 µL of each supernatant was stored as input. The remaining supernatants were incubated with 5 µg anti-p53 DO-1 antibody and rotated overnight at 4 °C. Samples were transferred to Dynabeads Protein G (# D10004D, Life Technologies) and rotated for 30 min at RT. Samples were centrifuged briefly for 10 s and placed in front of a magnet. […] Pellets were resuspended in 3× LDS containing 100 mM DTT. Samples were separated by SDS-PAGE and the gels were incubated in enhancer solution (#6NE9741, PerkinElmer), dried and exposed to Carestream Kodak BioMax MR films at −80 °C.

[4] = test system: DNA damage response markers in ARN8 cells; test: Western blotting of DNA damage response markers; assay type: cell-based, human
Description: Protein extracts were prepared in 1× LDS sample buffer (Invitrogen) with 100 mM DTT and separated and transferred using the Invitrogen western blotting system except in Supplementary Fig. 1c where the BioRad western blotting system was used. HRP-conjugated secondary antibodies were obtained from Dako (#P016102 and #P0211702) or Santa Cruz (#SC-2020). Immunofluorescence was performed by fixing cells in 4% paraformaldehyde freshly made in PBS for 10 min at 37 °C. Following fixation, cells were permeabilized in 0.15% Triton X-100 for 1–2 min at 37 °C followed by staining with the indicated antibodies. Images were taken using Olympus IX-71 microscope controlled by DeltaVision SoftWoRx. […]
Protein levels were analyzed by western blotting and relative p53 levels quantified using […]
for 1 h prior to the addition of hydroxyurea (HU) or vehicle control for a further 3 h and analyzed by western blotting. gapdh was used as loading control. d) ARN8 cells were treated […]
(Sigma, #N9162) for a further 2 h. Samples were lysed in 2 × LDS buffer (Invitrogen) and levels of P-ATM and ATM determined. α-tubulin was detected for loading control. e) ARN8 […]
of NCS for a further 2 h. Samples were lysed as in d) and levels of P-Ser15 p53 and γ-H2AX were determined. gapdh was used as loading control. f−g) ARN8 cells were treated with […]
(Ser 345) and chk1 were detected. […]

[5] = test system: p53 and p53-induced proteins in ARN8 cells; test: Western blotting of p53, hdm2 and p21 levels; assay type: cell-based, human; conditions: ARN8 melanoma cells
Description: as §1, with “Levels of p53, as well as downstream targets hdm2 (human mdm2) and p21 were determined. Levels” for “Levels”
Protein extracts were prepared in 1× LDS sample buffer (Invitrogen) with 100 mM DTT and separated and transferred using the Invitrogen western blotting system except in Supplementary Fig. 1c where the BioRad western blotting system was used. HRP-conjugated secondary antibodies were obtained from Dako (#P016102 and #P0211702) or Santa Cruz (#SC-2020). Immunofluorescence was performed by fixing cells in 4% paraformaldehyde freshly made in PBS for 10 min at 37 °C. Following fixation, cells were permeabilized in 0.15% Triton X-100 for 1–2 min at 37 °C followed by staining with the indicated antibodies. Images were taken using Olympus IX-71 microscope controlled by DeltaVision SoftWoRx. Image stacks were deconvolved, quick-projected and saved as tiff images to be processed using Adobe Photoshop. Antibodies to specific antigens are listed in Supplementary Table 8. All original films for blots in Fig. 1 are shown in Supplementary Figs. 9–12.

[6] = test system: total RNA in ARN8 cells; test: Total RNA quantification; assay type: cell-based, human
Description: Cells were fixed in 4 % paraformaldehyde made in PBS followed by 10 min at 37 °C, permeabilization in 0.15 % Triton X-100 for 1-2 min at 37 °C, and staining with antibodies against nucleolin and p53. Images were taken using Olympus IX-71 microscope controlled by Delta Vision SoftWorx. Image stacks were deconvolved, quick-projected and saved as tiff images to be processed using Adobe PhotoShop. Antibodies to specific antigens are listed in Supplementary Table 8. b) ARN8 […]
was extracted and quantified. […]

[7] = molecular target: CDK1/CycA2 (Homo sapiens, UniProt P06493); test: biochemical; parameters: radiometric 33PanQinase protein kinase activity assay, CDK/cyclin panel, per cent remaining activity; conditions: read-out: HZ00 10 µM Average (% remaining activity)
From the text: Supplementary Table 1. In vitro inhibition (% remaining activity) of cyclin-dependent
ProQinase GmbH (Freiburg, Germany) using a radiometric protein kinase assay
(33PanQinase® Activity Assay).
(1 picture or pasted object on this page, not shown here) 32 Supplementary Table 1. In vitro inhibition (% remaining activity) of cyclin-dependent kinases (CDKs).

Sequence of CDK1/CycA2 (P06493 whole entry): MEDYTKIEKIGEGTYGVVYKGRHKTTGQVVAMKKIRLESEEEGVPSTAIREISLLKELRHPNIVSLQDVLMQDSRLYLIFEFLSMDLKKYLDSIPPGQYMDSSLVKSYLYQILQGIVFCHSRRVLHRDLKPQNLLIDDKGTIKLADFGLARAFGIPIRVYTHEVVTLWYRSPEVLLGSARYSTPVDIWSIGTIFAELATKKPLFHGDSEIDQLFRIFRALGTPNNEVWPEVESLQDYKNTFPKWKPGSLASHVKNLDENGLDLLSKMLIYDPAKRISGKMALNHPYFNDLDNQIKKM
Sequence of CDK1/CycA2 (P20248 whole entry partner): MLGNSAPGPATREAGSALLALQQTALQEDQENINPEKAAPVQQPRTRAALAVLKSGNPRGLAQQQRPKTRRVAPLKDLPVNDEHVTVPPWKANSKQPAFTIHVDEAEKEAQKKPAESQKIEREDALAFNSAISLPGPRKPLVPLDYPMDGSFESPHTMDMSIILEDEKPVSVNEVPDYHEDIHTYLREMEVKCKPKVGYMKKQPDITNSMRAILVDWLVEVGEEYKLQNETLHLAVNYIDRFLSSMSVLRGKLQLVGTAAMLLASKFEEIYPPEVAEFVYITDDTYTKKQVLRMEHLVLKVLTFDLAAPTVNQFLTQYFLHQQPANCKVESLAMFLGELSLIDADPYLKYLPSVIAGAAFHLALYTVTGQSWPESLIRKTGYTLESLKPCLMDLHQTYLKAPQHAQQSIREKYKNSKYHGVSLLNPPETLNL
T1 sequence (Q00987 whole entry): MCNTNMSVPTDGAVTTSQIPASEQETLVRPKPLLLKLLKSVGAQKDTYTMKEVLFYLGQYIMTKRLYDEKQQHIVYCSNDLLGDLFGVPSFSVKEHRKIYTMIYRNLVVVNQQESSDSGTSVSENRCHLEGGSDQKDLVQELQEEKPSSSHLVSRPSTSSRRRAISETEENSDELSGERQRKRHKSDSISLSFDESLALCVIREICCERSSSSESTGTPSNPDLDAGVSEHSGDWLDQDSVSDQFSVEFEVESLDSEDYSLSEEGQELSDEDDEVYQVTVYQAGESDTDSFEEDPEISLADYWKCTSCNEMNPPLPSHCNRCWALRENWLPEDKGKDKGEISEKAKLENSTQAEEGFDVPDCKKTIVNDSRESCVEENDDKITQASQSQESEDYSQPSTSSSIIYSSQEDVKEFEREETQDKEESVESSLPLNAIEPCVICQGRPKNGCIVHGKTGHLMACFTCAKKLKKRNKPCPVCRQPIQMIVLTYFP

binding to human mdm2 (hdm2) [2]: does not bind
remaining activity at 10 µM [7]: 89.1%
Structure (SMILES): O=C(NC1CCCc2c1cnn2-c1ccccc1F)c1ccccn1 (stereo not shown) [HZ00]
p53-reporter activity in p53-null cells [1]: did not result in p53-reporter activity
p53 synthesis [3]: increase p53 synthesis
induction of DNA damage response markers [4]: did not observe any induction
levels of p53 and p53-induced proteins [5]: increased the levels of p53 and p53-induced proteins
total RNA levels [6]: drop in total RNA levels
